# Reference: US11339171B2, “MDM2 inhibitors” (Gan & Lee Pharmaceuticals, priority 2017, dated 2022)
# Several values for one entry are separate records, joined by “and”; a condition that tells them apart may be missing. Equal entries are not always repeated. Where two headings read alike, the source gives them in different places.
# Key:
# MDM2 = molecular target: T1, MDM2 (Homo sapiens, UniProt Q00987); assay: Inhibition test of MDM2-P53 (GST-MDM2, Biotin-P53, Anti-GST-Tb, SA-XL665); assay type: binding; settings: labels are Example numbers; the compounds with S-configuration are meant
# T1 construct: made in house
# Description: Experimental purpose: To determine the inhibitory activities of the compounds of the present invention on MDM2.
# The present experiment uses the following assay methods/instruments/reagents:
# Buffer: 1×PBS+0.1% BSA+5 mM DTT; MDM2 Buffer: Buffer+1 mM AEBSF
# GST-MDM2: The final concentration is 4 nM, and it is required to formulate a 20 nM (5×) solution. A mother liquor is diluted by 3500 folds, wherein the mother liquor is 10-fold diluted first, and then 350-fold diluted.
# Anti-GST-Tb: The final concentration is 2×, and a mother liquor is diluted by 50 folds.
# MIX: GST-MDM2, Biotin-P53, SA-XL665 and Anti-GST-Tb were mixed according to a ratio of 4:4:5:5.
# Sample: Preparation of a sample (10 mM in DMSO) solution: a. 3 μL sample+7 μL DMSO+20 μL DMSO were formulated to give an initial concentration of 1 mM and mixed well; b. in plate 1, twelve 5-fold serial dilutions (sequentially prepared by adding 10 μL of the last sample to 40 μL DMSO) were prepared and mixed well, individually; c. plate 2 was taken, 45 μL of Buffer was added to each well, and 5 μL of dilution at each concentration was taken from plate 1 and added to the corresponding well in plate 2 (the concentration in well 1 was 100 μM), and mixed well.
# 1. 18 μL of MIX was added to a 384-well plate, and centrifugation was performed at 4500 rpm for 5 min.
# 2. 2 μL of sample was added correspondingly to each well, the resultant was centrifuged at 25° C. and 4500 rpm for 5 min, and shaked at 25° C. for 90 min on a shaker.
# Readings were obtained from the Microplate reader, and data was processed by Graphpad Prism 6.0.
# [1] = Pharmacokinetics in ICR mice after intravenous and intragastric administration; assay type: in vivo; settings: for MRT last: read-out: MRT(0-t); for MRT inf: read-out: MRT(0-∞); for Tmax: read-out: Tmax; for Vd: read-out: Vz; for half-life: read-out: t1/2 (converted)
# Description: Experimental Example 3 Determination of the Pharmacokinetics of the Mdm2 Inhibitors of the Present Invention in Mice
# ICR mice were used as the test animals, and the concentrations of the drugs in plasma of mice at different time points after intravenous administration and intragastric administration of the representative compounds were measured by a LC/MS/MS method, so as to study the pharmacokinetic behavior of the compounds of the present invention in mice and evaluate the pharmacokinetic characteristics thereof.
# Some compounds prepared in Examples 1-180 of the present invention.
# The control drug HDM201 was prepared by the method disclosed in patent No. CN104203952A.
# Healthy adult ICR mice, male, 6-9 weeks old, weighing 20-30 g, purchased from Shanghai Xipuer-Bikai Laboratory Animal Co., Ltd., Animal Production License No.: SCXK (HU) 2013-0016
# 3.2.3 Preparation of Test Drugs
# Intragastric or intravenous administration: an appropriate amount of sample was weighed, dissolved in 5% DMSO+40% PEG400+55% (10% HP-β-CD in Saline) to prepare a 0.5 mg/ml solution for intragastric or intravenous administration.
# 3.2.4 Administration of Test Drugs
# Intravenous administration: for each test compound, 3 male ICR mice were administered intravenously at a dose of 2 mg/kg and an administration volume of […] after fasting overnight.
# Intragastric administration: for each test compound, 3 male ICR mice were administered intragastrically at a dose of 5 mg/kg and an administration volume of […] after fasting overnight.
# 3.3 Experimental Operation
# The collected plasma was stored at −80° C. before analysis. The plasma sample was analyzed by LC-MS/MS, and the sample was pretreated by protein precipitation method. The linear range of sample analysis was 1 to 2000 ng/ml. The lowest quantification limit was 1 ng/mL. WinNonlin (Pharsight, USA) was used to calculate the following pharmacokinetic parameters: area under the curve AUC(0-t), area under the curve AUC(0-∞), half-life t1/2, retention time MRT(0-∞), blood drug concentration Cmax, time taken to reach the peak blood drug concentration Tmax, bioavailability F, apparent volume of distribution Vz, and clearance rate CL.
# [2] = IV 2 mg/kg, ICR mice, individual animal, 2 mg/kg
# [3] = PO 5 mg/kg, ICR mice, individual animal, 5 mg/kg
# [4] = male, ICR, mouse, plasma, iv, 2 mg/kg, IV 2 mg/kg, ICR mice, Mean
# [5] = male, ICR, mouse, plasma, iv, 2 mg/kg, IV 2 mg/kg, ICR mice, individual animal
# [6] = male, ICR, mouse, plasma, po, 5 mg/kg, PO 5 mg/kg, ICR mice, Mean
# [7] = male, ICR, mouse, plasma, po, 5 mg/kg, PO 5 mg/kg, ICR mice, individual animal
# T1 sequence (Q00987 whole entry): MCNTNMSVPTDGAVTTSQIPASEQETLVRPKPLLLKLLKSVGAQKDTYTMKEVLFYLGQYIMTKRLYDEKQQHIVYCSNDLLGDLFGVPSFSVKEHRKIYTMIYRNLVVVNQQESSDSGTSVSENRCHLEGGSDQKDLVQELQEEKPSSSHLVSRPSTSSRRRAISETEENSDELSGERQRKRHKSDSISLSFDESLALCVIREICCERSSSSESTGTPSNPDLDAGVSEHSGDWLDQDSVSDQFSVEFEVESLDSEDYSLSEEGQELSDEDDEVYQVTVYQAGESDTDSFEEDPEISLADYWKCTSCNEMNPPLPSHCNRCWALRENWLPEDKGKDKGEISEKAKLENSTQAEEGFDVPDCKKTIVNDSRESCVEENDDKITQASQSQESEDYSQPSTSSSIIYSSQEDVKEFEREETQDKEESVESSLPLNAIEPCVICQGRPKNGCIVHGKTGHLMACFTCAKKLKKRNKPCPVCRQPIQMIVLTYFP
structure (smiles),measurement,setting,value
"COc1ccncc1-c1nc2c(n1C(C)C)C1(C(=O)Nc3cc(Cl)ccc31)N(c1cc(Cl)ccc1C)C2=O (stereo not drawn) [Example 18, 6-chloro-5′-(5-chloro-2-methylphenyl)-3′-isopropyl-2′-(4-methoxypyridin-3-yl)-3′H-spiro[dihydroindole-3,4′-pyrrolo[3,4-d]imidazole]-2,6′(5′H)-dione]",inhibitory effect on MDM2 compared with positive control compound HDM201,MDM2,better
"CNC(=O)c1ccc(OC)c(-c2nc3c(n2C(C)C)C2(C(=O)Nc4cc(Cl)ccc42)N(c2cc(Cl)ccc2C)C3=O)c1 (stereo not drawn) [Example 21, 3-(6-chloro-5′-(5-chloro-2-methylphenyl)-3′-isopropyl-2,6′-dioxo-5′,6′-dihydro-3′H-spiro[dihydroindole-3,4′-pyrrolo[3,4-d]imidazole]-2′-yl)-4-methoxy-N-methylbenzamide]",inhibitory effect on MDM2 compared with positive control compound HDM201,MDM2,better
"COc1ccc(C(N)=O)cc1-c1nc2c(n1C(C)C)C1(C(=O)Nc3cc(Cl)ccc31)N(c1cc(Cl)ccc1C)C2=O (stereo not drawn) [Example 29, 3-(6-chloro-5′-(5-chloro-2-methylphenyl)-3′-isopropyl-2,6′-dioxo-5′,6′-dihydro-3′H-spiro[dihydroindole-3,4′-pyrrolo[3,4-d]imidazole]-2′-yl)-4-methoxybenzamide]",inhibitory effect on MDM2 compared with positive control compound HDM201,MDM2,better
"COc1ncc(-c2nc3c(n2C(C)C)C2(C(=O)Nc4cc(Cl)ccc42)N(c2cc(Cl)ccc2F)C3=O)c(OC)n1 (stereo not drawn) [Example 44, 6-chloro-5′-(5-chloro-2-fluorophenyl)-2′-(2,4-dimethoxypyrimidin-5-yl)-3′-isopropyl-3′H-spiro[dihydroindole-3,4′-pyrrolo[3,4-d]imidazole]-2,6′(5′H)-dione]",inhibitory effect on MDM2 compared with positive control compound HDM201,MDM2,better
"COc1ncc(-c2nc3c(n2C(C)C)C2(C(=O)Nc4cc(Cl)ccc42)N(c2ccc(OC)c(Cl)c2)C3=O)c(OC)n1 (stereo not drawn) [Example 48, 6-chloro-5′-(3-chloro-4-methoxyphenyl)-2′-(2,4-dimethoxypyrimidin-5-yl)-3′-isopropyl-3′H-spiro[dihydroindole-3,4′-pyrrolo[3,4-d]imidazole]-2,6′(5′H)-dione]",inhibitory effect on MDM2 compared with positive control compound HDM201,MDM2,better
"COc1ncc(-c2nc3c(n2C(C)C)[C@H](c2ccc(Cl)cc2)N(c2cc(Cl)cn(C)c2=O)C3=O)c(OC)n1 [HDM201, reference compound]",AUC(0-t),[1]; [2],520.23 ng·h/mL and 622.13 ng·h/mL
same,AUC(0-∞),[1]; [2],600.29 ng·h/mL and 713.62 ng·h/mL
same,CL,[1]; [2],55.5285 mL/min/kg and 46.7105 mL/min/kg
same,Cmax,[1]; [2],459.85 ng/mL and 585.03 ng/mL
same,MRT(0-t),[1]; [2],40.8 min and 39.6 min
same,MRT(0-∞),[1]; [2],58.8 min and 57.6 min
same,Vz,[1]; [2],3.23181 L/kg and 2.7173 L/kg
same,t1/2,[1]; [2],40.2 min
same,F*,"[1]; PO 5 mg/kg vs IV 2 mg/kg, ICR mice",78.76%
same,AUC(0-t),[1]; [3],797.19 ng·h/mL and 1522.78 ng·h/mL
same,AUC(0-∞),[1]; [3],818.45 ng·h/mL and 1539.76 ng·h/mL
same,Cmax,[1]; [3],584.08 ng/mL and 715.01 ng/mL
same,MRT(0-t),[1]; [3],62.4 min and 109 min
same,MRT(0-∞),[1]; [3],69 min and 115 min
same,t1/2,[1]; [3],44.4 min and 74.4 min
same,AUC(0-inf),[1]; [4],644 ng·h/mL
same,clearance,[1]; [4],52 mL/min/kg
same,AUC(0-t),"[1]; male, ICR, mouse, plasma, iv, 2 mg/kg, IV 2 mg/kg, ICR mice, Mean, read-out: AUC(0-t)",572 ng·h/mL
same,Cmax,"[1]; male, ICR, mouse, plasma, iv, 2 mg/kg, IV 2 mg/kg, ICR mice, Mean, read-out: Cmax",550 ng/mL
same,MRT last,[1]; [4],38.4 min
same,MRT inf,[1]; [4],54 min
same,Tmax,[1]; [4],4.98 min
same,Vd,[1]; [4],2.8 L/kg
same,half-life,[1]; [4],37.2 min
same,AUC(0-inf),[1]; [5],619 ng·h/mL
same,clearance,[1]; [5],53.8 mL/min/kg
same,AUC(0-t),"[1]; male, ICR, mouse, plasma, iv, 2 mg/kg, IV 2 mg/kg, ICR mice, individual animal, read-out: AUC(0-t)",574 ng·h/mL
same,Cmax,"[1]; male, ICR, mouse, plasma, iv, 2 mg/kg, IV 2 mg/kg, ICR mice, individual animal, read-out: Cmax",606 ng/mL
same,MRT last,[1]; [5],35.4 min
same,MRT inf,[1]; [5],45 min
same,Tmax,[1]; [5],4.8 min
same,Vd,[1]; [5],2.46 L/kg
same,half-life,[1]; [5],31.8 min
same,AUC(0-inf),[1]; [6],1150 ng·h/mL
same,AUC(0-t),"[1]; male, ICR, mouse, plasma, po, 5 mg/kg, PO 5 mg/kg, ICR mice, Mean, read-out: AUC(0-t)",1130 ng·h/mL
same,Cmax,"[1]; male, ICR, mouse, plasma, po, 5 mg/kg, PO 5 mg/kg, ICR mice, Mean, read-out: Cmax",569 ng/mL
same,MRT last,[1]; [6],96 min
same,MRT inf,[1]; [6],103 min
same,Tmax,[1]; [6],30 min
same,half-life,[1]; [6],66.6 min
same,AUC(0-inf),[1]; [7],1080 ng·h/mL
same,AUC(0-t),"[1]; male, ICR, mouse, plasma, po, 5 mg/kg, PO 5 mg/kg, ICR mice, individual animal, read-out: AUC(0-t)",1060 ng·h/mL
same,Cmax,"[1]; male, ICR, mouse, plasma, po, 5 mg/kg, PO 5 mg/kg, ICR mice, individual animal, read-out: Cmax",409 ng/mL
same,MRT last,[1]; [7],116 min
same,MRT inf,[1]; [7],125 min
same,Tmax,[1]; [7],30 min
same,half-life,[1]; [7],80.4 min
same,AUC(0-t),"[1]; male, ICR, mouse, plasma, po, 5 mg/kg, oral intragastric administration 5 mg/kg, read-out: AUC0-t",1130 ng·h/mL
same,bioavailability,"[1]; male, ICR, mouse, plasma, oral intragastric administration 5 mg/kg, read-out: bioavailability",78.8%
